Source: patent US7232912B2, “Indazole compounds, pharmaceutical compositions, and methods for mediating or inhibiting cell proliferation” (Agouron Pharmaceuticals, Inc., priority 2000, dated 2007)

Key:
HCT 116 cell line = assay: Inhibition of Cell Growth (MTT tetrazolium salt assay); format: cell-based; details: Homo sapiens, HCT 116, MTT; for IC50: 50% inhibition of growth, read-out: HCT 116 IC50; for IC90: read-out: HCT 116 IC90
Procedure, shortened: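 HCT 116 cells in McCoy's 5A were dosed 4 h after plating, in 0.5% (v/v) DMSO, then held 4–6 days at 37 °C, 5% CO2. MTT at 0.2 mg/mL final for 4 h; DMSO-solubilized formazan read at 540 nm. IC50 taken from the linear part of a semi-log plot versus DMSO-only controls.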

LCK tyrosine kinase = biological target: T1, LCK tyrosine kinase (Homo sapiens, UniProt P06239, C224D/P223M); assay: Inhibition of phosphorylated LCK tyrosine kinase activity; format: biochemical; details: read-out: LCK % Inhib. at 1 μM
T1 construct: starting from amino acid 223 to the end of the protein at amino acid 509; made in house; host or cells: insect cells
Procedure: Inhibition of Phosphorylated FGF Receptor and LCK Tyrosine Kinase Activity
Cloning, expression and purification of the cytosolic domain of FGFR1 tyrosine kinase (amino acids 456–766) containing three amino acid substitutions (L457V, C488A, and C584S) were conducted as previously described (Mohammadi, M., Schlessinger, J., & Hubbard, S. R. (1996) Cell 86, 577–587). This domain was expressed in Sf9 insect cells using a baculovirus expression vector, and protein was purified using conventional techniques. The LCK tyrosine kinase was expressed in insect cells as an N-terminal deletion starting from amino acid 223 to the end of the protein at amino acid 509. The N-terminus of the protein also had two amino acid substitutions, P223M and C 224D. Kinases were purified using conventional chromatographic methods.
Tyrosine kinase activity was measured using a coupled, continuous spectrophotometric assay, in which production of phosphorylated poly(Glu, Tyr; 4:1) substrate and ADP is coupled to the pyruvate kinase-catalyzed transfer of a phosphate from phosphoenolpyruvate to ADP, with generation of pyruvate and regeneration of ATP. Pyruvate production is in turn coupled to the lactate dehydrogenase-catalyzed reduction of pyruvate to form lactate, with concomitant conversion of NADH to NAD+. Loss of NADH is monitored by measuring absorbance at 340 nm (see e.g., Technikova-Dobrova et al., “Spectrophotometric determination of functional characteristics of protein kinases with coupled enzymatic assay,” FEBS Letters, vol. 292 (1991), pp. 69–72). Enzyme activity was measured in the presence of 200 mM HEPES (pH 7.5), 2 mM phosphoenolpyruvate, 0.3 mM NADH, 20 mM MgCl2, 100 μM ATP, 5 mM DTT, 5.1 or 25 mM poly (Glu,Tyr) 4:1 for P-FGF or P-LCK assays, respectively, and 15 units/mL each of pyruvate kinase and lactate dehydrogenase. Phosphorylated FGF receptor kinase was present at 100 nM and phosphorylated LCK kinase was present at 50 nM. Assays were performed under initial rate conditions at 37° C., and rates were corrected for any background rate measured in the absence of enzyme. Percent inhibition was calculated relative to control enzyme assayed in the presence of 2% (v/v) DMSO.

VEGF-R2 = biological target: T2, VEGF-R2 (Homo sapiens, UniProt P35968, DEL940-989/E990V); assay: VEGF-R2 Assay (coupled spectrophotometric FLVK-P / ELISA); format: biochemical; details: read-out: VEGF % Inhib. at 1 μM
T2 construct: VEGF-R2Δ50 contains residues 806–939 and 990–1171; made in house; host or cells: baculovirus/insect cells
Excerpt: VEGF-R2 Construct for Assay
This construct determines the ability of a test compound to inhibit tyrosine kinase activity. A construct (VEGF-R2Δ50) of the cytosolic domain of human vascular endothelial growth factor receptor 2 (VEGF-R2) lacking the 50 central residues of the 68 residues of the kinase insert domain was expressed in a baculovirus/insect cell system. Of the 1356 residues of full-length VEGF-R2, VEGF-R2Δ50 contains residues 806–939 and 990–1171, and also one point mutation (E990V) within the kinase insert domain relative to wild-type VEGF-R2. […] See Parast et al., Biochemistry, 37,16788–16801 (1998).
Coupled Spectrophotometric (FLVK-P) Assay
The production of ADP from ATP that accompanies phosphoryl transfer was coupled to oxidation of NADH using phosphoenolpyruvate (PEP) and a system having pyruvate kinase (PK) and lactic dehydrogenase (LDH). The oxidation of NADH was monitored by following the decrease of absorbance at 340 nm (e340=6.22 cm^1 mM^−1) using a Beckman DU 650 spectrophotometer. Assay conditions for phosphorylated VEGF-R2A50 (indicated as FLVK-P in the tables below) were the following: 1 mM PEP; 250 μM NADH; 50 units of LDH/mL; 20 units of PK/mL; 5 mM DTT; 5.1 mM poly(E4Y1); 1 mM ATP; and 25 mM MgCl2 in 200 mM Hepes, pH 7.5. Assay conditions for unphosphorylated VEGF-R2A50 (indicated as FLVK in the tables) were the following: 1 mM PEP; 250 μM NADH; 50 units of LDH/mL; 20 units of PK/mL; 5 mM DTT; 20 mM poly(E4Y1); 3 mM ATP; and 60 mM MgCl2 and 2 mM MnCl2 in 200 mM Hepes, pH 7.5. Assays were initiated with 5 to 40 nM of enzyme. Ki values were determined by measuring enzyme activity in the presence of varying concentrations of test compounds. The data were analyzed using Enzyme Kinetic and Kaleidagraph software.
Formation of phosphogastrin was monitored using biotinylated gastrin peptide (1–17) as substrate. Biotinylated phosphogastrin was immobilized using streptavidin coated 96-well microtiter plates followed by detection using anti-phosphotyrosine-antibody conjugated to horseradish peroxidase. The activity of horseradish peroxidase was monitored using 2,2′-azino-di-[3-ethylbenzathiazoline sulfonate(6)] diammonium salt (ABTS). Typical assay solutions contained: 2 μM biotinylated gastrin peptide; 5 mM DTT; 20 μM ATP; 26 mM MgCl2; and 2 mM MnCl2 in 200 mM Hepes, pH 7.5. The assay was initiated with 0.8 nM of phosphorylated VEGF-R2Δ50. Horseradish peroxidase activity was assayed using ABTS, 10 mM. The horseradish peroxidase reaction was quenched by addition of acid (H2SO4), followed by absorbance reading at 405 nm. Ki values were determined by measuring enzyme activity in the presence of varying concentrations of test compounds. The data were analyzed using Enzyme Kinetic and Kaleidagraph software.

T1 sequence (P06239 223-509 P223M/C224D): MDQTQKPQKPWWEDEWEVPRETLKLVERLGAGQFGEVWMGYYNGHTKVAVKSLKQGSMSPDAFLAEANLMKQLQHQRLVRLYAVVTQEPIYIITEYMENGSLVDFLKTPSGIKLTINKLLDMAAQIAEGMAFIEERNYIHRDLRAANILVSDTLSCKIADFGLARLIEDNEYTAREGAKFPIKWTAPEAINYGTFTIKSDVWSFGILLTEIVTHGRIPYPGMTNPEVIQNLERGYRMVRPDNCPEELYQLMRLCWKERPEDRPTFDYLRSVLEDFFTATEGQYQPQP
T2 sequence (P35968 with tags, fused parts or gaps DEL940-989/E990V limits assumed): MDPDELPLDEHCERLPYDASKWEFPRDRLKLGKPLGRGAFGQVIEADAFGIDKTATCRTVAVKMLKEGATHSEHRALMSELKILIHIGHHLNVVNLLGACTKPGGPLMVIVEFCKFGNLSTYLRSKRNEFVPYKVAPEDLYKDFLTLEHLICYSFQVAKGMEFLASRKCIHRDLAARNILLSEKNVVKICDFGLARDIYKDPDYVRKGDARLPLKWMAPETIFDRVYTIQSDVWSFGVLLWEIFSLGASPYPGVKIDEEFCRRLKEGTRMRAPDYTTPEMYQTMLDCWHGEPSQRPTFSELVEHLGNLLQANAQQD

| IC50 (HCT 116 cell line) | IC90 (HCT 116 cell line) | inhibition at 1 µM (LCK tyrosine kinase) | inhibition at 1 µM (VEGF-R2) | Structure (SMILES) |
| --- | --- | --- | --- | --- |
| 1.2 µM | 2.5 µM | 17% |  | Cc1c(O)cccc1-c1ccc2[nH]nc(/C=C/c3ccccc3)c2c1 [15′, 2-Methyl-3-[3-((E)-styryl)-1H-indazol-5-yl]-phenol] |
| 1.5 µM | 3.8 µM | 21% |  | Cc1c(O)cccc1-c1ccc2[nH]nc(-c3nc4ccccc4[nH]3)c2c1 [10′, 3-[3-(1H-Benzoimidazol-2-yl)-1H-indazol-5-yl]-2-methyl-phenol] |
| 6 µM | 21 µM | 11% | 64% | Fc1ccccc1-c1ccc2[nH]nc(-c3nc4ccccc4[nH]3)c2c1 [Example 6, 3-(1H-Benzoimidazol-2-yl)-5-(2-fluorophenyl)-1H-Indazole] |
